Read-outs that look alike come from different tables or passages of the source.
Key:
isolated rat adipocytes [1] = assay: Incorporation of glucose carbon into triglyceride in cultured adipocytes; format: cell-based; details: Carnitine 20 mM
Procedure: Incorporation of Glucose Carbon into Triglyceride: To measure glucose incorporation into triglyceride, cultures are exposed to media containing 0.01 uCi/ml of ^14C-glucose. After 96 hr, media and extracellular lipid is removed from the well and methanol added. Then scrape the collagen-cell matrix from the well and transfer into a 50 ml glass tube. Rinse the well and scrape again in methanol to assure complete transfer of cells. Total triglycerides will be extracted using the Folch method (Folch, 1957). An aliquot of the lipid extract will be placed into vials containing scintillation fluid then radioactivity will be measured.
The first measurement is used to calculate the amount of glucose incorporated into triglycerides. Another aliquot of the lipid extract is placed into pre-weighed aluminum pans to determine the total amount of triglyceride per well. The remaining lipid is saponified and acidified to separate the glycerol and fatty acids. An aliquot of the lipid extract is placed into vials containing scintillation fluid and counted. This second count represents the ^14C-glucose incorporation into fatty acids. By subtraction, the amount that was incorporated into triglyceride though glycerol is also determined. Glucose incorporation into triglyceride and into the fatty acid portion of the triglyceride are calculated by multiplying disintegration per min by total ug of glucose/well over the total DPM/well.

isolated rat adipocytes [2] = assay: Glucose oxidation: incorporation of 14C-glucose into CO2 by isolated rat adipocytes; format: cell-based; details: L-carnitine
Procedure: Substrate Oxidation: Oxidation is measured using a modification of the method of Rodbell (Rodbell, 1964) and a modification of the cell culture system described by Bottcher and Furst (Bottcher, 1996). Briefly, adipocytes are isolated, counted and sized as previously described. Adipocytes are plated as described except they are placed in a sterile 20 ml scintillation vial instead of a well. Two ml of treatment media containing [U-^14C]-substrate (0.3 uCi/ml; glucose, fatty acids, malate, fumarate, pyruvate) is added to the vials. The vials are filled with 95% O2-5% CO2 gas and capped with rubber stoppers fitted with a hanging center well. Each well contains a 2×8 cm strip of Whatman No. 1 paper. Vials are maintained at 37° C. for 48 hr. After 48 hr, a sample of media is removed from each vial using a 4 inch, 23 gauge needle. Using another syringe and 23 gauge needle, 200 ul of sodium benzethonium is placed onto the paper strip and hanging well to capture CO2. Concentrated sulfuric acid is added to the vial in order to lyse cells and liberate all CO2 from the collagen matrix. After 24 hours, the hanging well and paper are transferred to another vial containing scintillation fluid and counted. The data are expressed as % DPM recovered as CO2 of the total DPM remaining in the media at 48 hours and as micromoles of substrate oxidized over time.

isolated rat adipocytes [3] = assay: Lactate production and proportion of glucose anaerobically metabolized to lactate in isolated cultured rat adipocytes; format: cell-based; details: Carnitine 20 mM
Procedure: (§1) Cell isolation/preparation: Adipocytes are prepared from epididymal fat pads from male Sprague-Dawley rats weighing 300-600 g. Epididymal fat depots are resected from halothane anesthetized rats under aseptic conditions and adipocytes are isolated by collagenase digestion by the Rodbell method (Rodbell M. Metabolism of isolated fat cells. I. Effects of hormones on glucose metabolism and lipolysis. J Biol Chem. 1964; 239: 375-380), with minor modifications as previously described (Mueller W M, Gregoire F M, Stanhope K L, Mobbs C V, Mizuno T M, Warden C H, Stem J S, Havel P J. Evidence that glucose metabolism regulates leptin secretion from isolated adipocytes. Endocrinology 139: 551-558, 1998; Mueller W M, Stanhope K L, Gregoire F, Evans J L, Havel P J. Effects of metformin and vanadium on leptin secretion from cultured rat adipocytes. Obesity Res. 8: 530-539, 2000; Medina E A, Stanhope K L, Mizuno T M, Mobbs C V, Gregoire F, Hubbard N E, Erickson K L, Havel P J. Effects of tumor necrosis factor alpha on leptin secretion and gene expression: relationship to changes of glucose metabolism in isolated rat adipocytes. Int J Obes Relat Metab Disord. 23: 896-903, 1999.). The isolated adipocytes are then incubated for 30 minutes at 37 C before being plated and cultured on Matrigel-coated plates.
(§2) Adipocyte Culture: Adipocytes are maintained in culture anchored to a basement membrane matrix (Matrigel, Becton Dickinson, Franklin Lakes, N.J.) or collagen from Cohesion Technologies, (Palo Alto, Calif.). Although all in vitro systems have inherent advantages and disadvantages, advantages of this system compared with cultures containing free-floating adipocytes are that the matrix simulates their normal basement membrane attachment and that the cells are maintained in close proximity to each other, allowing direct cell to cell contact. Together the cell contact and basement membrane attachment help to maintain differentiation, since adipocytes have a strong tendency to dedifferentiate in long-term (>24 h) culture. In addition, the matrix and the small amount of serum in the media both contain growth factors, which are also likely to help in maintaining cell differentiation. Furthermore, the adipocytes in this system are not exposed to toxic levels of oxygen at the interface of the media and the incubator atmosphere, as opposed to free-floating adipocytes which aggregate at the surface of the media. An advantage of the system over those containing minced adipose tissue is that all of the cells in the culture are equally exposed to the nutrients and the oxygen dissolved in the media. Thus, although clearly different from the in vivo situation, this system provides a more physiological environment than most systems for maintaining adipocytes in long-term culture.
(§3) In culturing each suspension, Matrigel is first thawed on ice to a liquid and uniformly applied to the surface of culture dishes (300 μl Matrigel/35 mm well). After the incubation period, 150 μl of the adipocyte suspension (2:1 ratio of packed cells to media) are plated on the Matrigel or collagen matrix. Adipocytes from each suspension are thoroughly mixed with a transfer pipette before plating to insure that a similar number adipocytes with a similar size distribution are added to the control and experimental wells for each suspension. The warmth of the added cells and buffer causes the Matrigel to gel around the adipocytes, or the neutralization of the acidic pH of the collagen solution to 7.0 solidifies the collagen, and both of these techniques effectively anchor the adipocytes to the culture dish. After a 30 minute incubation at 37° C., 2 ml of warm culture medium is added. The cells are maintained in an incubator at 37° C. for 96 hours with 6% CO2. Aliquots of adipocytes from each animal are divided into wells, with the different concentrations of insulin or other agents to be tested. In each plate an appropriate control well contains adipocytes from the same animal. […]

isolated rat adipocytes [4] = assay: Leptin secretion/production by isolated cultured rat adipocytes (RIA); format: cell-based; details: Carnitine 20 mM, n=12
Procedure: as §1, §2, §3

[5] = tested on: isolated, cultured adipocytes; assay: Fatty acid oxidation: incorporation of 14C-labeled oleate into CO2 by cultured adipocytes; format: cell-based, rat
Procedure: Experiments were also carried out to examine fatty acid oxidation by measuring the incorporation of ^14C-labeled oleate into CO2. […] Therefore, to further examine the potential role of fatty acid oxidation adipocytes were incubated with L-carnitine, a cofactor of the rate-limiting step for fatty acid transport into the mitochondria via carnitine-palmitoyl-tranferase (CPT).
Substrate Oxidation: Oxidation is measured using a modification of the method of Rodbell (Rodbell, 1964) and a modification of the cell culture system described by Bottcher and Furst (Bottcher, 1996). Briefly, adipocytes are isolated, counted and sized as previously described. Adipocytes are plated as described except they are placed in a sterile 20 ml scintillation vial instead of a well. Two ml of treatment media containing [U-^14C]-substrate (0.3 uCi/ml; glucose, fatty acids, malate, fumarate, pyruvate) is added to the vials. The vials are filled with 95% O2-5% CO2 gas and capped with rubber stoppers fitted with a hanging center well. Each well contains a 2×8 cm strip of Whatman No. 1 paper. Vials are maintained at 37° C. for 48 hr. […] After 24 hours, the hanging well and paper are transferred to another vial containing scintillation fluid and counted. The data are expressed as % DPM recovered as CO2 of the total DPM remaining in the media at 48 hours and as micromoles of substrate oxidized over time.

isolated rat adipocytes [6] = assay: Glucose utilization (uptake) by isolated cultured rat adipocytes; format: cell-based; details: Carnitine 20 mM
Procedure: as §1, §2, §3

isolated rat adipocytes [7] = details: metformin 1.0 mM with 0.16 nM insulin, n=18; cited from earlier work
isolated rat adipocytes [8] = details: metformin 1.0 mM with 0.16 nM insulin, n=18; cited from earlier work; remark: listed apart in the source
isolated rat adipocytes [9] = details: metformin 1.0 mM with 0.16 nM insulin, n=18; cited from earlier work; remark: listed apart in the source

Row | SMILES | effect on incorporation of labeled glucose into TG/lipid (in words) (isolated rat adipocytes [1]) | effect on glucose oxidation (in words) (isolated rat adipocytes [2]) | effect on proportion of glucose metabolized to lactate (in words) (isolated rat adipocytes [3]) | effect on leptin secretion (in words) (isolated rat adipocytes [4]) | increase of fatty acid oxidation ([5]; Carnitine 20 mM, n=7, percent of control) [%] | effect on fatty acid oxidation (in words) ([5]; L-carnitine) | effect on glucose utilization (in words) (isolated rat adipocytes [6]) | effect on leptin secretion (in words) (isolated rat adipocytes [7]) | effect on glucose utilization (in words) (isolated rat adipocytes [8]) | effect on proportion of glucose metabolized to lactate (in words) (isolated rat adipocytes [9])
1 | C[N+](C)(C)C[C@H](O)CC(=O)[O-] [Carnitine, L-carnitine] | inhibited | inhibited | increased | modestly increased | 50 | increased | inhibited | – | – | –
2 | CN(C)C(=N)N=C(N)N [metformin] | – | – | – | – | – | – | – | inhibits | increases | increases
